Measurements published in ChEMBL document CHEMBL3507680, “University of Dundee, Gates Library screen for HepG2 cell viability”.

assay: Human HepG2 cell viability assay in 384 well format; format: toxicity, cell-based; parameters: dose 125 nL, time 70.5 hour; concentration not given beside the values; conditions: HepG2 cells, read-out: Inhibition

| SMILES | cytotoxicity at 70.5 h |
| --- | --- |
| Cc1ccc(C(=O)NCCC2CN(C3CCCC3)CCO2)c(C)c1 (stereo unspecified) | -4.25% |
| Cc1cc(C(=O)N2C[C@H](CO)C[C@H](CN3CCOCC3)C2)cnc1C | 14.5% |
| Cc1oc(-c2ccoc2)nc1CN1CCCCC1CCn1cccn1 (stereo unspecified) | -3.32% |
| Cc1cccc(N2CCN(CCC(=O)NCc3ccc(C)s3)CC2)c1 | 20.7% |
| CCN(C)S(=O)(=O)N1C[C@@H]2CC[C@H](C1)N(Cc1cscn1)C2=O | -8.95% |
| CC(C)Cc1cn(C2CCN(C(C)CC3CC3)CC2)nn1 (stereo unspecified) | -0.853% |
| CNC(=O)c1n[nH]c2c1C(c1cccc3c1OC(C)(C)C3)CC(=O)N2 (stereo unspecified) | -1.8% |
| CCc1nccn1CC(=O)N1CCN(C2CCc3ccccc3C2)CC1 (stereo unspecified) | -13.3% |
| Cc1ccc(-c2ccnc(N[C@H]3COC[C@@H]3N3CCCCC3)n2)c(C)n1 | -11.2% |
| COc1ccc2c(CN3CCCN(Cc4ccncc4)CC3)n[nH]c2c1 | -1.17% |
| O=c1n(CC2CCCCO2)nc(CC2CCNCC2)n1-c1ccccc1 (stereo unspecified) | -6.56% |
| CCCN(Cc1cccnc1)C(=O)C1CCS(=O)(=O)CC1 | 6.55% |
| Cn1c(Cn2ccnc2)nnc1C1CCCN(c2ncccn2)C1 (stereo unspecified) | -9.36% |
| O=C(CCC1CCN(Cc2ccncc2)CC1)Nc1ccccc1Cl | 0.0549% |
| O=C1NCC2(CCCN(C(=O)Nc3ccc4scnc4c3)CC2)O1 (stereo unspecified) | -16.7% |
| COCCc1ncc(CN2C[C@H](C3CC3)[C@@H](N)C2)cn1 | -8.11% |
| Cc1cnc(C(=O)N2CCN(C(=O)CC(C)C)[C@@H]3CS(=O)(=O)C[C@@H]32)cn1 | -7.52% |
| CCOCCn1nc(C)cc1C(=O)N1CCC2(CC1)[C@H](O)C[C@@H]2OCC | 0.508% |
| COc1cccc(CC2CN(C3CCCCC3)CCO2)c1 (stereo unspecified) | 25.1% |
| N#Cc1ccccc1C(=O)N1C[C@@H](CN2CCOCC2)[C@@H](CO)C1 | -12% |
| CC(=O)Nc1ccsc1C(=O)Nc1cnc2n1CCCC2 | -4.21% |
| CC(=O)c1ccc(N2CCN(C(=O)c3cc(C(C)C)nn3C)CC2)cc1 | -14.7% |
| CCCOc1ccc(Cl)cc1CNc1ncnc2oc(C)nc12 | -6.3% |

| SMILES | cytotoxicity at 70.5 h |
| --- | --- |
| CN1CCN(S(=O)(=O)c2ccc3c(c2)CN(C(=O)C(C)(C)C)CC3)CC1 | -2.56% |
| Cc1nc(CN2CCCC(CCc3cccc(C(F)(F)F)c3)C2)co1 (stereo unspecified) | -3.79% |
| CN1CCCN(C[C@@H]2CN(C(=O)CCc3cn[nH]c3)C[C@@H]2CO)CC1 | -3.81% |
| O=C(NC1CCCC1)c1cc(Cn2cnc3ccccc32)on1 | -1.14% |
| CCN(CC1CCCCO1)C(=O)CCNC(=O)c1ccccc1F (stereo unspecified) | -11.6% |
| CN(C)c1ccccc1C(=O)N1CCCC(c2ccc(C(=O)O)cc2)C1 (stereo unspecified) | -17.2% |
| COc1ccccc1-n1nc(CC(C)C)nc1Cc1nnc(N)s1 | 5.97% |
| COc1cccc2c1OCC(C(=O)NCCCn1nc(C)c(Cl)c1C)C2 (stereo unspecified) | -7.76% |
| Cc1cccc(CN2C(=O)OCC2CO)c1F (stereo unspecified) | 14.6% |
| CCCC(=O)N1CCC(N2CC[C@@](O)(CCOC)[C@H](C)C2)CC1 | -5% |
| CNc1nc(C(=O)NCC2CCOc3ccccc3C2)cs1 (stereo unspecified) | 15.5% |
| CCc1ccc(CN2CCC(CNC(=O)c3ccc(C)nc3)C2)nc1 (stereo unspecified) | 16% |
| CCC1(CO)CCCN(C(=O)c2cc(COc3ccccc3F)[nH]n2)C1 (stereo unspecified) | -0.863% |
| CCc1c(O)nc(SCC(=O)N(CC)CC)n(C(C)CC)c1=O (stereo unspecified) | -0.0297% |
| CCCNC(=O)c1ccc(S(=O)(=O)NCC2(COC)CCCC2)cc1 | -4.17% |
| CCc1c(O)nc(SC(C)CC)n(-c2ccccc2)c1=O (stereo unspecified) | -7.78% |
| COc1cccc(-c2cnnc(N(C)CCC3CCCCO3)n2)c1 (stereo unspecified) | 0.0165% |
| c1ccc(CCN2CCCC(Cn3ccnc3)C2)cc1 (stereo unspecified) | -10.4% |
| CC(C)c1cc(CN(C)C(=O)CN2CCCCC2=O)no1 | 13.9% |
| Cc1nc(C)n(CC(C)C(=O)N2CCC(CN3CCOCC3)CC2)n1 (stereo unspecified) | 4.58% |
| Cc1nc(O)cc(CN2C[C@H](NC(=O)C3CCCC3)[C@@H](C3CC3)C2)n1 | -9.17% |
| CN(C)CCCn1ccnc1C1CCN(c2cccc(C(=O)O)n2)CC1 | -5.15% |
| CCc1nn(C)c(Cl)c1CN1C[C@H](NC(=O)CCO)[C@@H](C(C)C)C1 | -5.11% |

| SMILES | cytotoxicity at 70.5 h |
| --- | --- |
| CSc1cccc(CN(C)C(=O)CN2CCN(c3ncccn3)CC2)c1 | -8.23% |
| O=C(c1ccccc1-c1nnn[nH]1)N1CCOC(C(F)(F)F)C1 (stereo unspecified) | -9.42% |
| O=C1NCCCc2[nH]c(Cc3cccc(F)c3)nc21 | -8.57% |
| O=C(CN1CCCC1c1nc(-c2ccccn2)no1)N1CCNCC1 (stereo unspecified) | -4.93% |
| Cc1cc(C(=O)N2CCCC3(C=Cc4ccccc4O3)CC2)cc(=O)[nH]1 (stereo unspecified) | -7.57% |
| CCN(CC1CCOCC1)C(=O)C1CC(=O)N(Cc2cccnc2)C1 (stereo unspecified) | -5.23% |
| O=C(CC1CCc2ccccc21)N1CCC(O)(Cn2ccnc2)CC1 (stereo unspecified) | -5.64% |
| CCNc1ncc(C(=O)N[C@H]2CC[C@H](n3cnnc3)CC2)cn1 | -1.33% |
| Cc1sc2nc(CCN)nc(N3CCS(=O)(=O)CC3)c2c1C | -0.146% |
| CCCN1CCN(C(=O)Nc2ccccc2Cl)[C@H]2CS(=O)(=O)C[C@H]21 | -4.21% |
| CCCc1cc(C(=O)N[C@H](C)[C@@H](O)c2ccc(O)cc2)n(C)n1 | -11.6% |
| COc1ccc(CCNC(=O)CN2CCOCS2(=O)=O)cc1 | -8.13% |
| CC(=O)N1CCC(NC(C)c2cnn(-c3ccc(F)cc3F)c2C)CC1 (stereo unspecified) | -5.65% |
| COCCN1CC(Nc2nc(C(C)C)nc3c2cnn3C)CC1=O (stereo unspecified) | -0.509% |
| Cc1nn(C)c(C)c1CN(C)C(C(=O)O)c1ccc(F)cc1F (stereo unspecified) | -1.85% |
| CCC1CCC(NCCN2CCOCC2)CC1 (stereo unspecified) | -6.57% |
| CC1CCCN(Cc2cccc(C(=O)Nc3nccs3)c2)C1 (stereo unspecified) | -11.3% |
| Cc1cccnc1CNCC1(O)CCCN(CC2CCC2)C1=O (stereo unspecified) | 2.29% |
| CN(CCNC(=O)c1cnc(-c2ccccc2)nc1)S(C)(=O)=O | 5.47% |
| Cn1ncnc1-c1ccnc(NCc2ccccn2)n1 | 9.26% |
| O=C(CCN1CCCO1)N1CCCC(CO)(CCCc2ccccc2)C1 (stereo unspecified) | -8.66% |
| O=C1OC2(CCN(C(=O)C3NCCc4[nH]cnc43)CC2)c2ccccc21 (stereo unspecified) | -9.73% |
| Cc1cc(NC(C)c2nncn2C2CCCC2)n2nc(C)c(C)c2n1 (stereo unspecified) | -12.4% |

| SMILES | cytotoxicity at 70.5 h |
| --- | --- |
| CC[C@H]1COCCN1C(=O)c1ccc(OC)c(N2CCOCC2)c1 | -10.3% |
| OCCN(Cc1ccccc1)Cc1ccsc1 | -9.98% |
| O=c1c(CN2CCOCC2)coc2ccc(Cl)cc12 | -8.39% |
| Cc1nc(CCN)cc(N2CCOc3ccc(Cl)cc3C2)n1 | -5.61% |
| CN1CCN(Cc2ccc(Cl)cc2)CC1C(=O)O (stereo unspecified) | -6.51% |
| Cn1ncc2c(N3CCN(CCC(N)=O)CC3)nc(C3CCCC3)nc21 | -9.84% |
| O=c1c(CN2CCCCC2)coc2ccc(Cl)cc12 | -7.22% |
| COC(=O)c1ccc(CNC(=O)Cc2csc(C(C)=O)c2)cc1 | 4.17% |
| CCCc1nccn1-c1cccc(C(C)O)c1 (stereo unspecified) | -2.3% |
| CNc1ncc(CN(C)c2nc(C)c3ccc(S(C)(=O)=O)cc3n2)cn1 | -6.87% |
| CCc1nc(C)c(CN2CCCC(c3nn(C)c(=O)n3CC)C2)[nH]1 (stereo unspecified) | -6.96% |
| CCCn1ncc(C(=O)N2CCN(C3Cc4ccccc4C3)CC2)c1C | -0.105% |
| CN(Cc1nc(-c2cccnc2)no1)C(=O)c1c2c(nn1C)CCCC2 | -1.52% |
| Cc1nccn1CCC(=O)N1CCCN(c2ccccc2)CC1 | -6.92% |
| COc1cc(C)c(C2CC(=O)NCc3nc4sccn4c32)cc1C (stereo unspecified) | -18% |
| Cc1ocnc1C(=O)N1CCN(Cc2ccccc2)[C@@H]2CS(=O)(=O)C[C@@H]21 | -9.03% |
| O=C(c1scc2c1OCCO2)N1CCOC(CCc2ccccc2)C1 (stereo unspecified) | 1.27% |
| CN(C)c1nc(NCCc2ccnn2C)ncc1F | 23.5% |
| Cc1cc(C(=O)N2C[C@@H](C(=O)O)[C@H](C(C)C)C2)cs1 | -2.46% |
| O=C(C1CCC1)N1CCC(C(=O)N2CCC(c3ccc(F)cc3)C2)CC1 (stereo unspecified) | 3.33% |
| CCCc1ccc(CN2CCN(c3ncccn3)[C@@H]3CS(=O)(=O)C[C@@H]32)o1 | -8.8% |
| COCCc1noc(Cn2ccc3ncccc3c2=O)n1 | -7.6% |
| Cc1nonc1C1CCCN1CCC(=O)N1CCc2ccccc2C1 (stereo unspecified) | 24.4% |

| SMILES | cytotoxicity at 70.5 h |
| --- | --- |
| CCCn1ccnc1CN1CCC(Oc2cccc(F)c2)(C(=O)O)CC1 | -11% |
| CC(Cn1cnc2cn(C)nc2c1=O)Oc1cccnc1 (stereo unspecified) | 20.4% |
| COc1cccc(CN2CCCC3(CCN(C(CO)CO)C3)C2)c1 (stereo unspecified) | -7.1% |
| CC(O)c1cn(CC2CCN(C(=O)c3cccc(N(C)C)c3)CC2)nn1 (stereo unspecified) | -4.18% |
| CC(C)(C)N1CC(C(=O)NCc2nc(C3CCCCC3)no2)CC1=O (stereo unspecified) | -4.38% |
| CS(=O)(=O)CCC(=O)N1C[C@@H]2CC[C@H](C1)N(Cc1ccccn1)C2=O | 14.6% |
| Cc1cccnc1NCCNc1cc(C(C)C)nc2ccnn12 | -11.6% |
| CN(C)c1ccc(CN2CCC(C(O)Cc3ccccc3)CC2)cn1 (stereo unspecified) | -3.93% |
| c1cn(Cc2nnc(C3CCN(C4CCNCC4)CC3)n2C2CC2)cn1 | -1.79% |
| CN(C(=O)CSc1ccccn1)C1CCCN(CCc2ccccc2)C1 (stereo unspecified) | -7.26% |
| CCCN1CC2(CCN(c3ccc(C(C)=O)cn3)CC2)CC1C(=O)O (stereo unspecified) | -9.66% |
| CCC1C=CCN1C(=O)c1cc(COc2ccccc2OC)[nH]n1 (stereo unspecified) | -11.7% |
| COc1ccc(CN2CCN(C3CCc4ccccc4C3)CC2)cc1O (stereo unspecified) | 3.2% |
| C[C@@H]1CN(C(=O)C2CCS(=O)(=O)CC2)C[C@@]1(O)C1CC1 | -19.6% |
| Cc1ccc2c(c1)cc(CN1CC[C@](C)(O)[C@H](C)C1)n2C | -0.93% |
| CC(C)c1noc(-c2ccc(NCc3noc(C(C)C)n3)nc2)n1 | -5.44% |
| Cc1csc(S(=O)(=O)N2CCN(C)C3(CCC(=O)N(C)CC3)C2)c1 (stereo unspecified) | -11.5% |
| Cc1cc(C)n(CC(C)NCc2nncn2C2CCCCC2)n1 (stereo unspecified) | -7.66% |
| Cc1ncc(CC(=O)N2CCCC(COc3ccccc3F)C2)c(=O)[nH]1 (stereo unspecified) | -9.07% |
